# Assay results taken from patent publication US8513260B2, “Pyrazinylpyrazoles” (Bayer CropScience AG, priority 2009, dated 2013).
# Test system: Boophilus microplus
# Assay: Boophilus microplus test (BOOPMI injection)
# Format: in vivo
# Conditions: 20 μg animal; injection into the abdomen; after 7 days, laying of fertile eggs
# Experimental: Boophilus microplus Test (BOOPMI Injection) Solvent: dimethyl sulphoxide To prepare an appropriate active ingredient formulation, 10 mg of active ingredient are mixed with 0.5 ml of solvent and the concentrate is diluted with solvent to the desired concentration. The active ingredient solution is injected into the abdomen (Boophilus microplus), and the animals are transferred into dishes and stored in a climate-controlled room. The efficacy is assessed by laying of fertile eggs. After 7 days, the efficacy in % is determined. 100% means that none of the ticks has laid any fertile eggs.
row,Compound,efficacy
1,CCOc1nccnc1-n1nc(C(F)(F)F)c(-c2cc(Cl)cc(C(F)(F)F)c2)c1N [Ex. 12],100%
2,COc1nccnc1-n1nc(C(F)(F)C(F)(F)F)c(-c2cc(F)cc(C(F)(F)F)c2)c1N [Ex. 21],100%
3,COc1nccnc1-n1nc(C(F)(F)C(F)(F)C(F)(F)F)c(-c2cc(Cl)cc(C(F)(F)F)c2)c1N [Ex. 46],100%
4,COc1cc(-c2c(C(F)(F)F)nn(-c3nccnc3OC)c2N)cc(C(F)(F)F)c1OC [Ex. 89],100%
5,COc1nccnc1-n1nc(C(F)(F)F)c(-c2cc(Br)c3c(c2)OCCCO3)c1N [Ex. 131],100%
6,COc1nccnc1-n1nc(C(F)(F)F)c(-c2cc(Cl)c3c(c2)COCO3)c1N [Ex. 135],100%
7,COc1nccnc1-n1nc(C(F)(F)F)c(-c2cc(Cl)c3c(c2)OCCCO3)c1N [Ex. 136],100%

# Test system: unfed adult fleas (Ctenocephalides felis)
# Assay: Ctenocephalides felis test (CTECFE)
# Format: in vivo
# Conditions: 100 ppm in citrated cow's blood; after 2 days
# Experimental: Ctenocephalides felis Test ([…]) Solvent: 1 part by weight of dimethyl sulphoxide For the purpose of preparing an appropriate active ingredient formulation, 10 mg of active ingredient are mixed with 0.5 ml of dimethyl sulphoxide. A portion of the concentrate is diluted with citrated cow's blood and the desired concentration is established. About 20 unfed adult fleas (Ctenocephalides felis) are introduced into a chamber closed at the top and bottom with gauze. A metal cylinder, the bottom of which is closed with Parafilm, is placed onto the chamber. The cylinder contains the blood/active ingredient preparation, which can be imbibed by the fleas through the Parafilm membrane. After 2 days, the kill in % is determined. 100% means that all fleas have been killed; 0% means that none of the fleas have been killed.
row,Compound,efficacy (kill)
1,CCOc1nccnc1-n1nc(C(F)(F)F)c(-c2cc(Cl)cc(C(F)(F)F)c2)c1N [Ex. 12],90%
2,COc1ccc(CNc2c(-c3cc(Cl)cc(C(F)(F)F)c3)c(C(F)(F)F)nn2-c2nccnc2OC)cc1 [Ex. 41],80%
3,COc1nccnc1-n1nc(C(F)(F)C(F)(F)C(F)(F)F)c(-c2cc(Cl)cc(C(F)(F)F)c2)c1N [Ex. 46],80%
4,COc1cc(-c2c(C(F)(F)F)nn(-c3nccnc3OC)c2N)cc(C(F)(F)F)c1OC [Ex. 89],100%
5,COc1nccnc1-n1nc(C(F)(F)F)c(-c2cc(Br)c3c(c2)OCCCO3)c1N [Ex. 131],100%
6,COc1nccnc1-n1nc(C(F)(F)F)c(-c2cc(Cl)c3c(c2)COCO3)c1N [Ex. 135],100%
7,COc1nccnc1-n1nc(C(F)(F)F)c(-c2cc(Cl)c3c(c2)OCCCO3)c1N [Ex. 136],100%

# Test system: adult Musca domestica
# Assay: Musca domestica test
# Format: in vivo
# Conditions: 100 ppm; after 2 days
# Experimental: Musca domestica Test Solvent: dimethyl sulphoxide To prepare an appropriate active ingredient formulation, 10 mg of active ingredient are mixed with 0.5 ml of dimethyl sulphoxide and the concentrate is diluted with water to the desired concentration. Vessels containing a sponge treated with the active ingredient preparation of the desired concentration are populated with adult Musca domestica. After 2 days, the kill in % is determined. 100% means that all of the flies have been killed; 0% means that none of the flies have been killed.
row,Compound,efficacy (kill)
1,CCOc1nccnc1-n1nc(C(F)(F)F)c(-c2cc(Cl)cc(C(F)(F)F)c2)c1N [Ex. 12],100%
2,COc1nccnc1-n1nc(C(F)(F)C(F)(F)F)c(-c2cc(F)cc(C(F)(F)F)c2)c1N [Ex. 21],100%
3,COc1cc(-c2c(C(F)(F)F)nn(-c3nccnc3OC)c2N)cc(C(F)(F)F)c1OC [Ex. 89],80%
4,COc1nccnc1-n1nc(C(F)(F)F)c(-c2cc(Br)c3c(c2)OCCCO3)c1N [Ex. 131],100%

# Test system: green peach aphid (Myzus persicae)
# Assay: Myzus test (MYZUPE spray treatment)
# Format: in vivo
# Conditions: 500 g/ha, Chinese cabbage discs, after 6 days
# Experimental: Myzus Test (MYZUPE Spray Treatment) Solvent: 78 parts by weight of acetone • • 1.5 parts by weight of dimethylformamide Emulsifier: 0.5 part by weight of alkylaryl polyglycol ether To prepare an appropriate active ingredient preparation, 1 part by weight of active ingredient is mixed with the stated amounts of solvent and emulsifier, and the concentrate is diluted with emulsifier-containing water to the desired concentration. Discs of Chinese cabbage (Brassica pekinensis) infested by all stages of the green peach aphid (Myzus persicae) are sprayed with an active ingredient preparation of the desired concentration. After 6 days, the efficacy in % is determined. 100% means that all of the aphids have been destroyed; 0% means that none of the aphids have been destroyed.
row,Compound,efficacy
1,COc1nccnc1-n1nc(C(F)(F)C(F)(F)F)c(-c2cc(F)cc(C(F)(F)F)c2)c1N [Ex. 21],100%
2,COc1nccnc1-n1nc(C(F)(F)F)c(-c2cc(Cl)cc(C(F)(F)F)c2)c1NCc1ccccc1 [Ex. 33],80%
3,COc1ccc(CNc2c(-c3cc(Cl)cc(C(F)(F)F)c3)c(C(F)(F)F)nn2-c2nccnc2OC)cc1 [Ex. 41],90%
4,COc1nccnc1-n1nc(C(F)(F)C(F)(F)C(F)(F)F)c(-c2cc(Cl)cc(C(F)(F)F)c2)c1N [Ex. 46],80%
5,COc1nccnc1-n1nc(C(F)(F)C(F)F)c(-c2cc(Cl)cc(C(F)(F)F)c2)c1N [Ex. 59],100%
6,C=CCN(CC=C)c1c(-c2cc(Cl)cc(C(F)(F)F)c2)c(C(F)(F)F)nn1-c1nccnc1OC [Ex. 103],80%
7,C=C(C)c1nn(-c2nccnc2OC)c(N)c1-c1cc(Cl)cc(Cl)c1 [Ex. 167],100%
8,COc1nccnc1-n1nc(C(C)(C)F)c(-c2cc(Cl)cc(Cl)c2)c1N [Ex. 168],100%

# Test system: larvae of the mustard beetle (Phaedon cochleariae)
# Assay: Phaedon test (PHAECO spray treatment)
# Format: in vivo
# Conditions: 500 g/ha, Chinese cabbage discs, after 7 days
# Experimental: Phaedon Test ([…] Spray Treatment) Solvent: 78.0 parts by weight of acetone • • 1.5 parts by weight of dimethylformamide Emulsifier: 0.5 part by weight of alkylaryl polyglycol ether To prepare an appropriate active ingredient preparation, 1 part by weight of active ingredient is mixed with the stated amounts of solvent and emulsifier, and the concentrate is diluted with emulsifier-containing water to the desired concentration. Discs of Chinese cabbage (Brassica pekinensis) are sprayed with an active ingredient preparation of the desired concentration and, after drying, populated with larvae of the mustard beetle (Phaedon cochleariae). After 7 days, the efficacy in % is determined. 100% means that all beetle larvae have been killed; 0% means that none of the beetle larvae have been killed.
row,Compound,efficacy
1,CCOc1nccnc1-n1nc(C(F)(F)F)c(-c2cc(Cl)cc(C(F)(F)F)c2)c1N [Ex. 12],100%
2,COc1nccnc1-n1nc(C(F)(F)C(F)(F)F)c(-c2cc(F)cc(C(F)(F)F)c2)c1N [Ex. 21],100%
3,COc1nccnc1-n1nc(C(F)(F)F)c(-c2cc(Cl)cc(C(F)(F)F)c2)c1NCc1ccccc1 [Ex. 33],100%
4,COc1ccc(CNc2c(-c3cc(Cl)cc(C(F)(F)F)c3)c(C(F)(F)F)nn2-c2nccnc2OC)cc1 [Ex. 41],100%
5,COc1nccnc1-n1nc(C(F)(F)C(F)(F)C(F)(F)F)c(-c2cc(Cl)cc(C(F)(F)F)c2)c1N [Ex. 46],100%
6,COc1nccnc1-n1nc(C(F)(F)C(F)F)c(-c2cc(Cl)cc(C(F)(F)F)c2)c1N [Ex. 59],100%
7,COc1cc(-c2c(C(F)(F)F)nn(-c3nccnc3OC)c2N)cc(C(F)(F)F)c1OC [Ex. 89],100%
8,COc1nccnc1-n1nc(C(F)(F)F)c(-c2cc(Br)c3c(c2)OCCCO3)c1N [Ex. 131],100%
9,COc1nccnc1-n1nc(C(F)(F)F)c(-c2cc(Cl)c3c(c2)COCO3)c1N [Ex. 135],100%
10,COc1nccnc1-n1nc(C(F)(F)F)c(-c2cc(Cl)c3c(c2)OCCCO3)c1N [Ex. 136],100%
11,C=C(C)c1nn(-c2nccnc2OC)c(N)c1-c1cc(Cl)cc(Cl)c1 [Ex. 167],100%
12,COc1nccnc1-n1nc(C(C)(C)F)c(-c2cc(Cl)cc(Cl)c2)c1N [Ex. 168],100%

# Test system: caterpillars of the armyworm (Spodoptera frugiperda)
# Assay: Spodoptera frugiperda test (SPODFR spray treatment)
# Format: in vivo
# Conditions: 500 g/ha, maize leaf discs, after 7 days
# Experimental: Spodoptera frugiperda Test (SPODFR Spray Treatment) Solvent: 78.0 parts by weight of acetone • • 1.5 parts by weight of dimethylformamide Emulsifier: 0.5 part by weight of alkylaryl polyglycol ether To prepare an appropriate active ingredient preparation, 1 part by weight of active ingredient is mixed with the stated amounts of solvent and emulsifier, and the concentrate is diluted with emulsifier-containing water to the desired concentration. Discs of maize leaves (Zea mays) are sprayed with an active ingredient preparation of the desired concentration and, after drying, populated with caterpillars of the armyworm (Spodoptera frugiperda). After 7 days, the efficacy in % is determined. 100% means that all caterpillars have been killed; 0% means that none of the caterpillars have been killed.
row,Compound,efficacy
1,COc1nccnc1-n1nc(C(F)(F)C(F)(F)F)c(-c2cc(F)cc(C(F)(F)F)c2)c1N [Ex. 21],100%
2,COc1nccnc1-n1nc(C(F)(F)C(F)(F)C(F)(F)F)c(-c2cc(Cl)cc(C(F)(F)F)c2)c1N [Ex. 46],100%
3,COc1nccnc1-n1nc(C(F)(F)C(F)F)c(-c2cc(Cl)cc(C(F)(F)F)c2)c1N [Ex. 59],83%
4,COc1cc(-c2c(C(F)(F)F)nn(-c3nccnc3OC)c2N)cc(C(F)(F)F)c1OC [Ex. 89],100%
5,COc1nccnc1-n1nc(C(F)(F)F)c(-c2cc(Br)c3c(c2)OCCCO3)c1N [Ex. 131],100%
6,COc1nccnc1-n1nc(C(F)(F)F)c(-c2cc(Cl)c3c(c2)COCO3)c1N [Ex. 135],80%
7,COc1nccnc1-n1nc(C(C)(C)F)c(-c2cc(Cl)cc(Cl)c2)c1N [Ex. 168],100%

# Test system: red spider mite (Tetranychus urticae)
# Assay: Tetranychus test, OP-resistant (TETRUR spray treatment)
# Format: in vivo
# Conditions: 500 g/ha, bean leaf discs, after 6 days
# Experimental: Tetranychus Test, OP-Resistant (TETRUR Spray Treatment)
# Solvent: 78.0 parts by weight of acetone • • 1.5 parts by weight of dimethylformamide
# Emulsifier: 0.5 part by weight of alkylaryl polyglycol ether
# To prepare an appropriate active ingredient preparation, 1 part by weight of active ingredient is mixed with the stated amounts of solvent and emulsifier, and the concentrate is diluted with emulsifier-containing water to the desired concentration. Discs of bean leaves (Phaseolus vulgaris) infested by all stages of the red spider mite (Tetranychus urticae) are sprayed with an active ingredient preparation of the desired concentration. After 6 days, the efficacy in % is determined. 100% means that all spider mites have been killed; 0% means that none of the spider mites have been killed.
row,Compound,efficacy
1,CCOc1nccnc1-n1nc(C(F)(F)F)c(-c2cc(Cl)cc(C(F)(F)F)c2)c1N [Ex. 12],90%
2,COc1nccnc1-n1nc(C(F)(F)C(F)(F)F)c(-c2cc(F)cc(C(F)(F)F)c2)c1N [Ex. 21],100%
3,COc1nccnc1-n1nc(C(F)(F)F)c(-c2cc(Cl)cc(C(F)(F)F)c2)c1NCc1ccccc1 [Ex. 33],90%
4,COc1nccnc1-n1nc(C(F)(F)C(F)(F)C(F)(F)F)c(-c2cc(Cl)cc(C(F)(F)F)c2)c1N [Ex. 46],80%
5,COc1nccnc1-n1nc(C(F)(F)C(F)F)c(-c2cc(Cl)cc(C(F)(F)F)c2)c1N [Ex. 59],100%
6,COc1nccnc1-n1nc(C(F)(F)F)c(-c2cc(Br)c3c(c2)OCCCO3)c1N [Ex. 131],100%
7,C=C(C)c1nn(-c2nccnc2OC)c(N)c1-c1cc(Cl)cc(Cl)c1 [Ex. 167],100%
8,COc1nccnc1-n1nc(C(C)(C)F)c(-c2cc(Cl)cc(Cl)c2)c1N [Ex. 168],100%
